This is an account of results in US20120157471A1, “BENZIMIDAZOLE DERIVATIVES” (PFIZER INC., priority 2009, published 2012).

One experiment has as its system Gli-Luc/MEF cells (Smo). The experiment is described as follows: Gli-Luc/MEF assay (Shh-stimulated luciferase reporter under the Gli response element). The class given is cell-based, mouse. The essentials: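 Mouse Gli-Luc/MEF cells dosed with compound (3-fold series, […]) plus 2 μg/mL recombinant mouse Shh, then incubated 48 h at 37° C, 5% CO2. Bright-Glo luminescence read; IC50 calculated from inhibition of Shh-stimulated luciferase.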
(In general: In a reporter assay the amount or activity of a reporter protein is the signal.)

The target of experiment [1] is T1, human Smo (amino acids 181-787) (Homo sapiens, UniProt Q99835).
T1 construct: expressed in transfected cells; membrane preparation
T1 sequence (Q99835 181-787): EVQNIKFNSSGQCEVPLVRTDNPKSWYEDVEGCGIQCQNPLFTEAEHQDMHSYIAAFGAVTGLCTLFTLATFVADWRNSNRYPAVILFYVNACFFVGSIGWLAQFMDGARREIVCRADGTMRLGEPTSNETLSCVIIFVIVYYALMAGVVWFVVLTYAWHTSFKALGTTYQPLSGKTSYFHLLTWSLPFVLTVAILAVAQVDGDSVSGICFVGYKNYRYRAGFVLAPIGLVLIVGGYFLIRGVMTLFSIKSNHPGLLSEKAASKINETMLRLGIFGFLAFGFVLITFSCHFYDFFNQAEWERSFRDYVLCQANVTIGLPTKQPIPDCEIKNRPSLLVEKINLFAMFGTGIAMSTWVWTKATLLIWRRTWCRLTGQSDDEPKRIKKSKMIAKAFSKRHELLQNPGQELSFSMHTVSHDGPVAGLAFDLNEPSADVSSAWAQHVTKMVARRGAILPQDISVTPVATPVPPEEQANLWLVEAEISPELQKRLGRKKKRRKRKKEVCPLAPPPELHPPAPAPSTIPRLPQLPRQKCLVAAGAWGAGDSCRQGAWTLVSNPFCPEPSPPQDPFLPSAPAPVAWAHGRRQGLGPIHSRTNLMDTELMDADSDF
Description: Smo radioligand competition binding assay (displacement of 3H-PF-03451358 from HEK293 membranes). The settings on record: for inhibition at 0.05 µM: 0.05 μM test compound, displacement of 3H-PF-03451358, read-out: SMO % inh. @ 0.05 μM; for IC50: radioligand competition binding. The essentials:
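Membranes (40 μg protein/well) from HEK293 expressing murine Igk-leader-fused Smo 181-787 incubated 2 h at room temperature with 3 nM 3H-PF-03451358 in Tris pH 7.5/NaCl/MgCl2/EDTA/BSA buffer; filter-bound counts by scintillation. Nonspecific binding with 30 μM cold PF-03451358; IC50 from four-parameter fit of % inhibition.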
(In general: Displacement assays read how much labelled ligand stays bound in the presence of the test substance.)

As usually defined, the IC50 is the concentration needed to halve the response being measured. Low values mean higher potency, high ones lower potency. The compound `Cn1c(-c2cc(N3CCN(C(=O)CC(C)(C)O)CC3)ncc2Cl)nc2ccccc21` [Example A-190, 4-{4-[5-chloro-4-(1-methyl-1H-benzimidazol-2-yl)pyridin-2-yl]piperazin-1-yl}-2-methyl-4-oxobutan-2-ol] gave an IC50 in the experiment on Gli-Luc/MEF cells (Smo) (Mus musculus, MEF, 48 h) of 1.4 nM. In experiment [1], the inhibition at 0.05 µM amounted to 98% and the IC50 turned out to be 7 nM.

`Cn1c(-c2cc(N3CCN(C(=O)C4CCOC4)CC3)ncc2Cl)nc2ccccc21` (centres unmarked) [Example A-191, 2-{5-chloro-2-[4-(tetrahydrofuran-3-ylcarbonyl)piperazin-1-yl]pyridin-4-yl}-1-methyl-1H-benzimidazole]: in the experiment with Gli-Luc/MEF cells (Smo) (Mus musculus, MEF, 48 h), the IC50 was found to be 1.7 nM. Moreover, in experiment [1], the inhibition at 0.05 µM was determined as 101% and the IC50 came to 6 nM.

The compound `CN(C)CC(=O)N1CCN(c2cc(-c3nc4ccccc4n3C)c(Cl)cn2)CC1` [Example A-192, 2-{4-[5-chloro-4-(1-methyl-1H-benzimidazol-2-yl)pyridin-2-yl]piperazin-1-yl}-N,N-dimethyl-2-oxoethanamine] registered an IC50 in the experiment on Gli-Luc/MEF cells (Smo) (Mus musculus, MEF, 48 h) of 2.4 nM. In experiment [1], the inhibition at 0.05 µM came to 87% and the IC50 amounted to 15 nM.

In the case of `Cn1c(-c2cc(N3[C@@H]4CC[C@H]3C[C@@H](NS(C)(=O)=O)C4)ncc2Cl)nc2ccccc21` [Example A-193, N-{(3-endo)-8-[5-chloro-4-(1-methyl-1H-benzimidazol-2-yl)pyridin-2-yl]-8-azabicyclo[3.2.1]oct-3-yl}methanesulfonamide], the IC50 with Gli-Luc/MEF cells (Smo) (Mus musculus, MEF, 48 h) worked out at 2.5 nM; in experiment [1], 13 nM. Moreover, in experiment [1], the inhibition at 0.05 µM was found to be 103%.

In the experiment with Gli-Luc/MEF cells (Smo) (Mus musculus, MEF, 48 h), `Cn1c(-c2cc(N3[C@@H]4CC[C@H]3CNC4)ncc2Cl)nc2ccccc21` [Example A-194, 2-{5-chloro-2-[(1R,5S)-3,8-diazabicyclo[3.2.1]oct-8-yl]pyridin-4-yl}-1-methyl-1H-benzimidazole] yielded an IC50 of 3.7 nM. Further, in experiment [1], the inhibition at 0.05 µM stood at 111% and the IC50 was determined as 13 nM.

As for `COCCS(=O)(=O)NC1CN(c2cc(-c3nc4ccccc4n3C)c(Cl)cn2)C1` [Example A-195, N-{1-[5-chloro-4-(1-methyl-1H-benzimidazol-2-yl)pyridin-2-yl]azetidin-3-yl}-2-methoxyethanesulfonamide], the IC50 in the experiment with Gli-Luc/MEF cells (Smo) (Mus musculus, MEF, 48 h) was 4.9 nM. Also, in experiment [1], the inhibition at 0.05 µM stood at 101% and the IC50 came out at 9.5 nM.

For `C[C@H]1CN(S(C)(=O)=O)CCN1c1cc(-c2nc3ccccc3n2C)c(Cl)cn1` [Example A-196, 2-{5-chloro-2-[(2S)-2-methyl-4-(methylsulfonyl)piperazin-1-yl]pyridin-4-yl}-1-methyl-1H-benzimidazole], inhibition with Gli-Luc/MEF cells (Smo) (Mus musculus, MEF, 48 h) was half-maximal at 6.7 nM (IC50). In addition, in experiment [1], the inhibition at 0.05 µM was 99% and the IC50 amounted to 8 nM.

`CN1CC2(CCN(c3cc(-c4nc5ccccc5n4C)c(Cl)cn3)CC2)OC1=O` [Example A-197, 8-[5-chloro-4-(1-methyl-1H-benzimidazol-2-yl)pyridin-2-yl]-3-methyl-1-oxa-3,8-diazaspiro[4.5]decan-2-one] displayed an IC50 in the experiment with Gli-Luc/MEF cells (Smo) (Mus musculus, MEF, 48 h) of 6.9 nM. In experiment [1], the inhibition at 0.05 µM was 96% and the IC50 amounted to 10 nM.

As to `Cn1c(-c2cc(N3CCC4(CC3)CNC(=O)O4)ncc2Cl)nc2ccccc21` [Example A-198, 8-[5-chloro-4-(1-methyl-1H-benzimidazol-2-yl)pyridin-2-yl]-1-oxa-3,8-diazaspiro[4.5]decan-2-one], the IC50 with Gli-Luc/MEF cells (Smo) (Mus musculus, MEF, 48 h) amounted to 7 nM. Also, in experiment [1], the inhibition at 0.05 µM came to 87% and the IC50 was found to be 9 nM.

With `CC(=O)N1CCN(c2cc(-c3nc4ccccc4n3C)c(Cl)cn2)[C@@H](C)C1` [Example A-199, 2-{2-[(2S)-4-acetyl-2-methylpiperazin-1-yl]-5-chloropyridin-4-yl}-1-methyl-1H-benzimidazole], the IC50 in the experiment on Gli-Luc/MEF cells (Smo) (Mus musculus, MEF, 48 h) worked out at 7.2 nM. Besides, in experiment [1], the inhibition at 0.05 µM came out at 100% and the IC50 turned out to be 9 nM.

In the experiment with Gli-Luc/MEF cells (Smo) (Mus musculus, MEF, 48 h), `Cn1c(-c2cc(N3CC(NS(=O)(=O)CCO)C3)ncc2Cl)nc2ccccc21` [Example A-200, N-{1-[5-chloro-4-(1-methyl-1H-benzimidazol-2-yl)pyridin-2-yl]azetidin-3-yl}-2-hydroxyethanesulfonamide] returned an IC50 of 7.6 nM. Besides, in experiment [1], the inhibition at 0.05 µM stood at 98% and the IC50 was found to be 15 nM.

In the experiment with Gli-Luc/MEF cells (Smo) (Mus musculus, MEF, 48 h), `COCC(=O)N1CCN(c2cc(-c3nc4ccccc4n3C)c(Cl)cn2)CC1` [Example A-201, 2-{5-chloro-2-[4-(methoxyacetyl)piperazin-1-yl]pyridin-4-yl}-1-methyl-1H-benzimidazole] displayed an IC50 of 8.8 nM. For the same compound, in experiment [1], the inhibition at 0.05 µM came out at 96% and the IC50 turned out to be 14 nM.

With `Cn1c(-c2cc(N3CCN(C(=O)CO)CC3)ncc2Cl)nc2ccccc21` [Example A-202, 2-{4-[5-chloro-4-(1-methyl-1H-benzimidazol-2-yl)pyridin-2-yl]piperazin-1-yl}-2-oxoethanol], the IC50 with Gli-Luc/MEF cells (Smo) (Mus musculus, MEF, 48 h) came to 9 nM; in experiment [1], 11 nM. Also, the inhibition at 0.05 µM in experiment [1] was determined as 97%.

For the compound `Cn1c(-c2cc(N3CCC(OC(N)=O)CC3)ncc2Cl)nc2ccccc21` [Example A-203, 1-[5-chloro-4-(1-methyl-1H-benzimidazol-2-yl)pyridin-2-yl]piperidin-4-yl carbamate], the IC50 with Gli-Luc/MEF cells (Smo) (Mus musculus, MEF, 48 h) is 12.5 nM. Moreover, in experiment [1], the inhibition at 0.05 µM came to 94% and the IC50 amounted to 11 nM.

In the experiment on Gli-Luc/MEF cells (Smo) (Mus musculus, MEF, 48 h), `Cn1c(-c2cc(N3CCC4(CC3)CC(O)CCO4)ncc2Cl)nc2ccccc21` (centres unmarked) [Example A-204, 9-[5-chloro-4-(1-methyl-1H-benzimidazol-2-yl)pyridin-2-yl]-1-oxa-9-azaspiro[5.5]undecan-4-ol] had an IC50 of 12.6 nM. In addition, in experiment [1], the inhibition at 0.05 µM is 96% and the IC50 is 19 nM.

For `Cn1c(-c2cc(N3CC(NC(=O)C4CCOCC4)C3)ncc2Cl)nc2ccccc21` [Example A-205, N-{1-[5-chloro-4-(1-methyl-1H-benzimidazol-2-yl)pyridin-2-yl]azetidin-3-yl}tetrahydro-2H-pyran-4-carboxamide], in the experiment with Gli-Luc/MEF cells (Smo) (Mus musculus, MEF, 48 h), the midpoint of inhibition, the IC50, lay at 14.2 nM. For the same compound, in experiment [1], the inhibition at 0.05 µM turned out to be 93%.

In the experiment on Gli-Luc/MEF cells (Smo) (48 hours), `Cn1c(-c2cc(N3CCN(CCS(C)(=O)=O)CC3)ncc2Cl)nc2ccccc21` [Example A-206, 2-(5-chloro-2-{4-[2-(methylsulfonyl)ethyl]piperazin-1-yl}pyridin-4-yl)-1-methyl-1H-benzimidazole] showed an IC50 of 17.1 nM. Besides, in experiment [1], the inhibition at 0.05 µM was determined as 99% and the IC50 came out at 17 nM.

Regarding `Cn1c(-c2cc(N3[C@@H]4CC[C@H]3CN(C(=O)CO)C4)ncc2Cl)nc2ccccc21` [Example A-207, 2-{(1R,5S)-8-[5-chloro-4-(1-methyl-1H-benzimidazol-2-yl)pyridin-2-yl]-3,8-diazabicyclo[3.2.1]oct-3-yl}-2-oxoethanol], the IC50 with Gli-Luc/MEF cells (Smo) (Mus musculus, MEF, 48 h) turned out to be 17.3 nM. In addition, in experiment [1], the inhibition at 0.05 µM amounted to 94% and the IC50 was 10 nM.

As for `Cn1c(-c2cc(N3CCC(C(=O)NC4CCOC4)CC3)ncc2Cl)nc2ccccc21` (centres unmarked) [Example A-208, 1-[5-chloro-4-(1-methyl-1H-benzimidazol-2-yl)pyridin-2-yl]-N-(tetrahydrofuran-3-yl)piperidine-4-carboxamide], the IC50 with Gli-Luc/MEF cells (Smo) (Mus musculus, MEF, 48 h) was 18.1 nM. Further, in experiment [1], the inhibition at 0.05 µM was found to be 102% and the IC50 was found to be 23 nM.

In turn, `CN(CC(C)(C)O)c1cc(-c2nc3ccccc3n2C)c(Cl)cn1` [Example A-209, 1-{[5-chloro-4-(1-methyl-1H-benzimidazol-2-yl)pyridin-2-yl](methyl)amino}-2-methylpropan-2-ol] showed a 50% inhibitory concentration (IC50) in the experiment on Gli-Luc/MEF cells (Smo) (Mus musculus, MEF, 48 h) of 19.6 nM. Also, in experiment [1], the inhibition at 0.05 µM is 97% and the IC50 was found to be 18 nM.

As for `Cn1c(-c2cc(N3CCC(F)(F)CC3)ncc2Cl)nc2ccccc21` [Example A-210, 2-[5-chloro-2-(4,4-difluoropiperidin-1-yl)pyridin-4-yl]-1-methyl-1H-benzimidazole], the IC50 in the experiment with Gli-Luc/MEF cells (Smo) (Mus musculus, MEF, 48 h) is 22 nM; in experiment [1] it was 57 nM. Further, the inhibition at 0.05 µM in experiment [1] came to 87%.

Turning to `Cn1c(-c2cc(N3CC(CS(C)(=O)=O)C3)ncc2Cl)nc2ccccc21` [Example A-211, 2-(5-chloro-2-{3-[(methylsulfonyl)methyl]azetidin-1-yl}pyridin-4-yl)-1-methyl-1H-benzimidazole], the midpoint of inhibition with Gli-Luc/MEF cells (Smo) (Mus musculus, MEF, 48 h), the IC50, lay at 28.4 nM. In addition, in experiment [1], the inhibition at 0.05 µM was determined as 104% and the IC50 worked out at 36 nM.

Turning to `Cn1c(-c2cc(N3CCC(C(=O)NCC(C)(C)O)CC3)ncc2Cl)nc2ccccc21` [Example A-212, 1-[5-chloro-4-(1-methyl-1H-benzimidazol-2-yl)pyridin-2-yl]-N-(2-hydroxy-2-methylpropyl)piperidine-4-carboxamide], in the experiment with Gli-Luc/MEF cells (Smo) (Mus musculus, MEF, 48 h), the IC50 turned out to be 29.1 nM. Besides, in experiment [1], the inhibition at 0.05 µM turned out to be 99% and the IC50 was 12 nM.

With `Cn1c(-c2cc(N3CCN(CCO)CC3)ncc2Cl)nc2ccccc21` [Example A-213, 2-{4-[5-chloro-4-(1-methyl-1H-benzimidazol-2-yl)pyridin-2-yl]piperazin-1-yl}ethanol], the IC50 in the experiment on Gli-Luc/MEF cells (Smo) (Mus musculus, MEF, 48 h) was 56.8 nM. In experiment [1], the inhibition at 0.05 µM turned out to be 83% and the IC50 came out at 78 nM.

In the experiment with Gli-Luc/MEF cells (Smo) (Mus musculus, MEF, 48 h), `CCn1c(-c2cc(N3CCN(C(C)=O)CC3)ncc2Cl)nc2ccccc21` [Example A-214, 2-[2-(4-acetylpiperazin-1-yl)-5-chloropyridin-4-yl]-1-ethyl-1H-benzimidazole] had an IC50 of 124 nM. In addition, in experiment [1], the inhibition at 0.05 µM was found to be 63% and the IC50 is 432 nM.

Take `CC(=O)N1CCN(c2cc(-c3nc4ccccc4[nH]3)c(Cl)cn2)CC1` [Example A-215, 2-[2-(4-acetylpiperazin-1-yl)-5-chloropyridin-4-yl]-1H-benzimidazole]: the IC50 turned out to be 63 nM with Gli-Luc/MEF cells (Smo) (Mus musculus, MEF, 48 h) and 189 nM in experiment [1]. For the same compound, the inhibition at 0.05 µM in experiment [1] is 79%.
